Results as given in patent US10806142B2, “2-amino-5-ketoxime-pyrimidine derivatives and their use for controlling undesired plant growth” (Bayer CropScience Aktiengesellschaft, priority 2015, dated 2020).

Key:
Amaranthus retroflexus [1] = test: Pre-emergence herbicidal effect; type: in vivo
From the text: (§1) 1. Pre-Emergence Herbicidal Effect and Crop Plant Compatibility Seeds of monocotyledonous and dicotyledonous weed plants and crop plants are laid out in wood-fiber pots in sandy loam and covered with soil. The compounds of the invention, formulated in the form of wettable powders (WP) or as emulsion concentrates (EC), are then applied to the surface of the covering soil as aqueous suspension or emulsion at a water application rate equating to 600 to 800 L/ha with addition of 0.2% wetting agent. After the treatment, the pots are placed in a greenhouse and kept under good growth conditions for the trial plants. The damage to the trial plants is scored visually after a trial duration of 3 weeks by comparison with untreated controls (herbicidal activity in percent (%): 100% efficacy=the plants have died, 0% efficacy=like control plants). [table]

Alopecurus myosuroides = test: Pre-emergence herbicidal effect; type: in vivo
From the text: as §1

Avena fatua = test: Pre-emergence herbicidal effect; type: in vivo; details: dosage 320 g a.i./ha
From the text: as §1

Setaria viridis [2] = test: Pre-emergence herbicidal effect; type: in vivo
From the text: as §1

Viola tricolor [3] = test: Pre-emergence herbicidal effect; type: in vivo
From the text: as §1

Echinochloa crus-galli = test: Pre-emergence herbicidal effect; type: in vivo
From the text: as §1

Polygpnum convolvulus [4] = test: Pre-emergence herbicidal effect; type: in vivo
From the text: as §1

Abutilon theophrasti [5] = test: Pre-emergence herbicidal effect; type: in vivo; details: dosage 320 g a.i./ha
From the text: as §1

Stellaria media [6] = test: Pre-emergence herbicidal effect; type: in vivo
From the text: as §1

Matricaria inodora [7] = test: Pre-emergence herbicidal effect; type: in vivo
From the text: as §1

Veronica persica = test: Pre-emergence herbicidal effect; type: in vivo
From the text: as §1

[8] = logp (HCOOH), physicochemical characterization; details: HCOOH (formic acid)
Amaranthus retroflexus [9] = test: Post-emergence herbicidal effect; type: in vivo; details: visual score after about 3 weeks
Protocol: (§2) [table] 2. Post-Emergence Herbicidal Effect and Crop Plant Compatibility Seeds of monocotyledonous and dicotyledonous weed and crop plants are laid out in sandy loam in wood-fiber pots, covered with soil and cultivated in a greenhouse under good growth conditions. 2 to 3 weeks after sowing, the test plants are treated at the one-leaf stage. The compounds of the invention, formulated in the form of wettable powders (WP) or as emulsion concentrates (EC), are then sprayed onto the green parts of the plants as aqueous suspension or emulsion at a water application rate equating to 600 to 800 L/ha with addition of 0.2% wetting agent. After the trial plants have been left to stand in a greenhouse under optimal growth conditions for about 3 weeks, the efficacy of the formulations is scored visually in comparison to untreated controls (herbicidal action in percent (%): 100% efficacy=the plants have died, 0% efficacy=like control plants).

Ipomoea purpurea = test: Post-emergence herbicidal effect; type: in vivo; details: visual score after about 3 weeks
Protocol: as §2

Setaria viridis [10] = test: Post-emergence herbicidal effect; type: in vivo; details: visual score after about 3 weeks
Protocol: as §2

Viola tricolor [11] = test: Post-emergence herbicidal effect; type: in vivo; details: visual score after about 3 weeks
Protocol: as §2

Cyperus esculentus [12] = test: Pre-emergence herbicidal effect; type: in vivo; details: dosage 320 g a.i./ha
From the text: as §1

Polygpnum convolvulus [13] = test: Post-emergence herbicidal effect; type: in vivo; details: visual score after about 3 weeks
Protocol: as §2

Stellaria media [14] = test: Post-emergence herbicidal effect; type: in vivo; details: visual score after about 3 weeks
Protocol: as §2

Abutilon theophrasti [15] = test: Post-emergence herbicidal effect; type: in vivo; details: visual score after about 3 weeks
Protocol: as §2

Lolium multiflorum = test: Post-emergence herbicidal effect; type: in vivo; details: dosage 320 g a.i./ha, visual score after about 3 weeks
Protocol: as §2

Cyperus esculentus [16] = test: Post-emergence herbicidal effect; type: in vivo; details: dosage 320 g a.i./ha, visual score after about 3 weeks
Protocol: as §2

Matricaria inodora [17] = test: Post-emergence herbicidal effect; type: in vivo; details: visual score after about 3 weeks
Protocol: as §2

SMILES	chromatographic logP [8]	Herbicidal activity against AMARE (Amaranthus retroflexus [1]; dosage 80 g a.i./ha)	Herbicidal activity against AMARE (Amaranthus retroflexus [1]; dosage 320 g a.i./ha)	Herbicidal activity against SETVI (Setaria viridis [2]; dosage 320 g a.i./ha)	Herbicidal activity against VIOTR (Viola tricolor [3]; dosage 80 g a.i./ha)	Herbicidal activity against VIOTR (Viola tricolor [3]; dosage 320 g a.i./ha)	Herbicidal activity against ECHCG (Echinochloa crus-galli; dosage 320 g a.i./ha)	Herbicidal activity against POLCO (Polygpnum convolvulus [4]; dosage 80 g a.i./ha)	Herbicidal activity against POLCO (Polygpnum convolvulus [4]; dosage 320 g a.i./ha)	Herbicidal activity against STEME (Stellaria media [6]; dosage 80 g a.i./ha)	Herbicidal activity against STEME (Stellaria media [6]; dosage 320 g a.i./ha)	Herbicidal activity against MATIN (Matricaria inodora [7]; dosage 80 g a.i./ha)	Herbicidal activity against MATIN (Matricaria inodora [7]; dosage 320 g a.i./ha)	Herbicidal activity against VERPE (Veronica persica; dosage 80 g a.i./ha)	Herbicidal activity against VERPE (Veronica persica; dosage 320 g a.i./ha)	Herbicidal activity against PHBPU (Ipomoea purpurea; dosage 320 g a.i./ha)	Herbicidal activity against SETVI (Setaria viridis [10]; dosage 320 g a.i./ha)	Herbicidal activity against VIOTR (Viola tricolor [11]; dosage 80 g a.i./ha)	Herbicidal activity against VIOTR (Viola tricolor [11]; dosage 320 g a.i./ha)	Herbicidal activity against POLCO (Polygpnum convolvulus [13]; dosage 80 g a.i./ha)	also measured
C/C(=N\Oc1ccc(F)cc1)c1cnc(N[C@H]2c3cc(C)ccc3C[C@@H]2C)nc1 [Compound 1.101a, N-[(1R,2S)-2,6-Dimethyl-2,3-dihydro-1H-inden-1-yl]-5-[(1E)-N-(4-fluorophenoxy)ethanimidoyl]pyrimidine-2-amine]	5.34	90%	100%	–	–	100%	100%	90%	–	100%	100%	80%	100%	100%	100%	–	80%	90%	90%	100%	Herbicidal activity against CYPES (Cyperus esculentus [12]): 90%; Herbicidal activity against POLCO (Polygpnum convolvulus [13]; dosage 320 g a.i./ha): 100%; Herbicidal activity against ABUTH (Abutilon theophrasti [15]; dosage 80 g a.i./ha): 90%; Herbicidal activity against ABUTH (Abutilon theophrasti [15]; dosage 320 g a.i./ha): 100%; Herbicidal activity against STEME (Stellaria media [14]; dosage 80 g a.i./ha): 90%; Herbicidal activity against STEME (Stellaria media [14]; dosage 320 g a.i./ha): 90%
C/C(=N/Oc1ccc(F)cc1)c1cnc(N[C@H]2c3cc(C)ccc3C[C@@H]2C)nc1 [Compound 1.101b, N-[(1R,2S)-2,6-dimethyl-2,3-dihydro-1H-inden-1-yl]-5-[(1Z)-N-(4-fluorophenoxy)ethanimidoyl]pyrimidine-2-amine]	5.56	90%	100%	100%	90%	100%	90%	–	100%	100%	100%	80%	100%	100%	100%	100%	–	90%	90%	80%	Herbicidal activity against AMARE (Amaranthus retroflexus [9]; dosage 320 g a.i./ha): 90%; Herbicidal activity against LOLMU (Lolium multiflorum): 100%; Herbicidal activity against POLCO (Polygpnum convolvulus [13]; dosage 320 g a.i./ha): 100%; Herbicidal activity against ABUTH (Abutilon theophrasti [15]; dosage 80 g a.i./ha): 80%; Herbicidal activity against ABUTH (Abutilon theophrasti [15]; dosage 320 g a.i./ha): 100%; Herbicidal activity against CYPES (Cyperus esculentus [16]): 100%; Herbicidal activity against STEME (Stellaria media [14]; dosage 80 g a.i./ha): 80%; Herbicidal activity against STEME (Stellaria media [14]; dosage 320 g a.i./ha): 90%; Herbicidal activity against MATIN (Matricaria inodora [17]; dosage 320 g a.i./ha): 100%
CCO/N=C(/C)c1cnc(N[C@H]2c3cc(C)ccc3C[C@@H]2C)nc1 [Compound 1.103b, N-[(1R,2S)-2,6-dimethyl-2,3-dihydro-1H-inden-1-yl]-5-[(1Z)-N-ethoxyethanimidoyl]pyrimidine-2-amine]	4.92	80%	100%	90%	100%	100%	100%	100%	100%	100%	100%	100%	100%	100%	100%	90%	80%	90%	100%	90%	Herbicidal activity against POLCO (Polygpnum convolvulus [13]; dosage 320 g a.i./ha): 100%; Herbicidal activity against ABUTH (Abutilon theophrasti [15]; dosage 80 g a.i./ha): 90%; Herbicidal activity against ABUTH (Abutilon theophrasti [15]; dosage 320 g a.i./ha): 100%; Herbicidal activity against CYPES (Cyperus esculentus [16]): 80%; Herbicidal activity against STEME (Stellaria media [14]; dosage 80 g a.i./ha): 80%; Herbicidal activity against STEME (Stellaria media [14]; dosage 320 g a.i./ha): 90%; Herbicidal activity against MATIN (Matricaria inodora [17]; dosage 80 g a.i./ha): 80%; Herbicidal activity against MATIN (Matricaria inodora [17]; dosage 320 g a.i./ha): 100%

Continued, in another order:

chromatographic logP [8]	SMILES	Herbicidal activity against AMARE (Amaranthus retroflexus [1]; dosage 80 g a.i./ha)	Herbicidal activity against AMARE (Amaranthus retroflexus [1]; dosage 320 g a.i./ha)	Herbicidal activity against SETVI (Setaria viridis [2]; dosage 320 g a.i./ha)	Herbicidal activity against VIOTR (Viola tricolor [3]; dosage 80 g a.i./ha)	Herbicidal activity against VIOTR (Viola tricolor [3]; dosage 320 g a.i./ha)	Herbicidal activity against ECHCG (Echinochloa crus-galli; dosage 320 g a.i./ha)	Herbicidal activity against POLCO (Polygpnum convolvulus [4]; dosage 80 g a.i./ha)	Herbicidal activity against POLCO (Polygpnum convolvulus [4]; dosage 320 g a.i./ha)	Herbicidal activity against STEME (Stellaria media [6]; dosage 80 g a.i./ha)	Herbicidal activity against STEME (Stellaria media [6]; dosage 320 g a.i./ha)	Herbicidal activity against MATIN (Matricaria inodora [7]; dosage 80 g a.i./ha)	Herbicidal activity against MATIN (Matricaria inodora [7]; dosage 320 g a.i./ha)	Herbicidal activity against VERPE (Veronica persica; dosage 80 g a.i./ha)	Herbicidal activity against VERPE (Veronica persica; dosage 320 g a.i./ha)	Herbicidal activity against PHBPU (Ipomoea purpurea; dosage 320 g a.i./ha)	Herbicidal activity against SETVI (Setaria viridis [10]; dosage 320 g a.i./ha)	Herbicidal activity against VIOTR (Viola tricolor [11]; dosage 80 g a.i./ha)	Herbicidal activity against VIOTR (Viola tricolor [11]; dosage 320 g a.i./ha)	Herbicidal activity against POLCO (Polygpnum convolvulus [13]; dosage 80 g a.i./ha)	also measured
3.71	CC/C(=N\O)c1cnc(N[C@H]2c3cc(C)ccc3C[C@@H]2C)nc1CC [Compound 1.40a, N-[(1R,2S)-2,6-Dimethyl-2,3-dihydro-1H-inden-1-yl]-4-ethyl-5-[(1E)-N-hydroxypropanimidoyl]pyrimidine-2-amine]	100%	100%	100%	100%	100%	100%	100%	100%	100%	100%	90%	100%	100%	100%	100%	100%	90%	90%	–	Herbicidal activity against ALOMY (Alopecurus myosuroides; dosage 80 g a.i./ha): 90%; Herbicidal activity against ALOMY (Alopecurus myosuroides; dosage 320 g a.i./ha): 100%; Herbicidal activity against AVEFA (Avena fatua): 100%; Herbicidal activity against SETVI (Setaria viridis [2]; dosage 80 g a.i./ha): 100%; Herbicidal activity against ECHCG (Echinochloa crus-galli; dosage 80 g a.i./ha): 90%; Herbicidal activity against ABUTH (Abutilon theophrasti [5]): 100%; Herbicidal activity against AMARE (Amaranthus retroflexus [9]; dosage 80 g a.i./ha): 90%; Herbicidal activity against AMARE (Amaranthus retroflexus [9]; dosage 320 g a.i./ha): 90%; Herbicidal activity against PHBPU (Ipomoea purpurea; dosage 80 g a.i./ha): 80%; Herbicidal activity against SETVI (Setaria viridis [10]; dosage 80 g a.i./ha): 100%
3.86	CC/C(=N/O)c1cnc(N[C@H]2c3cc(C)ccc3C[C@@H]2C)nc1CC [Compound 1.40b, N-[(1R,2S)-2,6-dimethyl-2,3-dihydro-1H-inden-1-yl]-4-ethyl-5-[(1Z)-N-hydroxypropanimidoyl]pyrimidine-2-amine]	100%	100%	100%	100%	100%	100%	100%	100%	90%	100%	90%	100%	100%	100%	90%	90%	90%	90%	80%	Herbicidal activity against ALOMY (Alopecurus myosuroides; dosage 320 g a.i./ha): 80%; Herbicidal activity against AVEFA (Avena fatua): 90%; Herbicidal activity against SETVI (Setaria viridis [2]; dosage 80 g a.i./ha): 100%; Herbicidal activity against ECHCG (Echinochloa crus-galli; dosage 80 g a.i./ha): 90%; Herbicidal activity against CYPES (Cyperus esculentus [12]): 100%; Herbicidal activity against AMARE (Amaranthus retroflexus [9]; dosage 80 g a.i./ha): 90%; Herbicidal activity against AMARE (Amaranthus retroflexus [9]; dosage 320 g a.i./ha): 100%; Herbicidal activity against PHBPU (Ipomoea purpurea; dosage 80 g a.i./ha): 80%; Herbicidal activity against POLCO (Polygpnum convolvulus [13]; dosage 320 g a.i./ha): 80%; Herbicidal activity against STEME (Stellaria media [14]; dosage 80 g a.i./ha): 70%; Herbicidal activity against STEME (Stellaria media [14]; dosage 320 g a.i./ha): 80%
